Consider 4 compounds from US5750782A, “Nitroaniline derivatives and their use as anti-tumour agents” (priority 1996, dated 1998).

Structures are written as SMILES. pIC50: −log10 of the molar value. Read-outs that look alike come from different tables or passages of the source.

For data set [1] the following is noted: product of CB 1954 reduction by Walker cell enzyme; cited from earlier work.
Data set [2] deals with Walker tumour cells. The following applies: in vivo or in vitro; cited from earlier work.
In data set [3] the test system is other tumours. The following applies: cited from earlier work.
For data set [4], the system named is EC.1.6.99.2. The following applies: Walker cell enzyme; cited from earlier work.
In data set [5] the test system is bacterial nitroreductase enzymes. The following applies: PCT/GB92/01947; cited from earlier work.
Data set [6] has as its system AA8. Nature of the data set: Growth inhibition (IC50), AA8 cells, aerobic. Format: cell-based. The following applies: air, 18 h exposure. Here is the method: (§1) Growth inhibition studies were performed as described in detail elsewhere (W.R. Wilson, R.F. Anderson and W.A Denny. J Med. Chem., 1989, 32, 23; G.J. Finlay, B.C. Baguley and W.R. Wilson. Anal Biochem., 1984, 139, 172.), using 200 viable AA8 or 300 viable UV4 cells plus 5000 lethally-irradiated AA8 feeder cells per well in 96-well tissue culture dishes. AA8 and UV4 cells were maintained in logarithmic-phase growth in […] tissue culture flasks with subculture twice weekly by trypsinization. The growth medium was antibiotic-free α-MEM with 10% v/v heat-inactivated ([…], 40 min) fetal calf serum. Doubling times were approximately 14h for AA8 and 15h for UV4 cells.

Data set [7] has as its system UV4. Nature of the data set: Growth inhibition (IC50), UV4 cells, aerobic. Format: cell-based. The following applies: air, 18 h exposure. The method, then:
as §1

Data set [8] deals with AA8 and UV4 cell lines. As to the kind of experiment: Ratio of IC50 values against AA8 and UV4 cell lines (HFair). It counts as cell-based. The following applies: 18 h exposure. Here is the method: as §1
Ratio of IC50 values for a compound after exposure as detailed above against AA8 and UV4 cell lines (HF=IC50 (AA8)/IC50 (UV4)).

Data set [9] deals with UV4 cells. As to the kind of experiment: Clonogenic assay, UV4 cells (CT10), aerobic and hypoxic. It counts as cell-based. The text has this:
The product (in μM-hr) of the drug concentration times the exposure time to reduce cell survival to 10% of control values in the clonogenic assay.
Ratio of CT10 values after exposure of UV4 cells as detailed above under either aerobic (air) or hypoxic (N2) conditions (=aerobic CT10 /hypoxic CT10).

In data set [10] the test system is UV4 cell line. Nature of the data set: Ratio of IC50 values against UV4 cell line in presence and absence of E. coli nitroreductase enzyme NTR-2. Format: cell-based. The following applies: air, ratio of IC50 in presence and absence of E. coli nitroreductase NTR-2, 1080 min. Here is the method: as §1
Ratio of IC50 values for a compound after exposure as detailed above against the UV4 cell line in the presence and absence of the E. coli nitroreductase enzyme NTR-2.

Data set [11] concerns the target T1, E. coli nitroreductase (Escherichia coli, UniProt P38489).
T1 sequence (P38489 1-217): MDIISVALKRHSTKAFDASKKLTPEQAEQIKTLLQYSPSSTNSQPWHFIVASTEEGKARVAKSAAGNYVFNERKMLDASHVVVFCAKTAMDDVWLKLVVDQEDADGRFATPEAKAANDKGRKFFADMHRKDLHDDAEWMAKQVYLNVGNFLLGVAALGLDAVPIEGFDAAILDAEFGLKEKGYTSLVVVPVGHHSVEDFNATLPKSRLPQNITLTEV
Nature of the data set: Drug reduction by the E. coli nitroreductase. It counts as biochemical. The following applies: 120 min.

Data set [12] concerns V79 cells. Nature of the data set: Survival of V79 cells in the presence of the B. amyloliquifaciens nitroreductase. The following applies: 2 h, 37° C. Format: cell-based.
Procedure: The effect of SN23862 on the survival of V79 cells in the preence of the B. amyloliquifaciens nitroreductase. All treatments were for 2 hours at 37° C. and the cells were then plated out for their resulting colony forming ability. […] The initial cell density was 2×10^5 /mL.
In data set [13] the target is T2, B. amyloliquifaciens nitroreductase (Bacillus amyloliquefaciens, UniProt Q8VSR5).
T2 sequence (Q8VSR5 1-174): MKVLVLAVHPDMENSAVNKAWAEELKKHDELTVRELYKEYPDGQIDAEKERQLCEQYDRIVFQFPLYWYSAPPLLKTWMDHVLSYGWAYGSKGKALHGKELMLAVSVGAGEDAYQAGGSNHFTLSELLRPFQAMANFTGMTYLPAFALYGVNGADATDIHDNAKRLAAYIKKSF
As to the kind of experiment: Drug reduction by the B. amyloliquifaciens nitroreductase. It counts as biochemical. The following applies: 120 min. The method, then: The nitroreductase concentration was 7.45 μg/ml and NADII was ised as a co-factor.

The subject of data set [14] is MAWI Cells. Nature of the data set: Survival of Mawi cells in the presence of the E. coli nitroreductase: A5B7 F(ab)2 conjugate. It counts as cell-based. The following applies: 2 h, 37° C. The method, then:
(§2) The conjugate concentration was 81 μg/ml (euivalent to 5.2 μg/ml nitroreductase) and NADII was used as a co-factor. […] No attempt was made to remove unbound conjugate.

Data set [15] has as its system V79 cells. Nature of the data set: Survival of V79 cells in the presence of the E. coli nitroreductase: A5B7 F(ab)2 conjugate. Format: cell-based. The following applies: 2 h, 37° C. Here is the method: as §2
For data set [16], the target named is T3, E. coli nitroreductase: A5B7 F(ab)2 conjugate (Escherichia coli, UniProt P38489).
T3 construct: A5B7 F(ab)2 antibody fragment (conjugate)
T3 sequence (P38489 1-217): T1 sequence (P38489 1-217)
As to the kind of experiment: Drug reduction by the E. coli nitroreductase: A5B7 F(ab)2 conjugate. Format: biochemical. The following applies: 120 min. Here is the method: as §2

The subject of data set [17] is AA8 cells. Nature of the data set: Radiosensitisation of hypoxic AA8 cells, gamma irradiation. It counts as cell-based. The method, then: The radiosensitising efficiency of compound 1 has been assessed in stirred suspensions of AA8 cells under hypoxie conditions using gamma irradiation (cobalt 60) at a dose rate of 2.2 Gy/min at 37° C. Drug and cells were mixed under hypoxic conditions 30 min before irradiation.

Data set [18] relates to bacterial nitroreductase enzymes. Nature of the data set: Reductive activation by bacterial nitroreductase enzymes. It counts as biochemical, Escherichia coli and Bacillus amyloliquifaciens. The following applies: Examples 1 to 3.
The subject of data set [19] is V79 cells. The following applies: 2 h, 37° C.
Procedure: (§3) The nitroreductase concentration was 2 μg/ml and NADH was used as a co-factor. The initial cell density was 2×10^5 /mL.
Data set [20] relates to V79 cells. As to the kind of experiment: Survival of V79 cells in the presence of the E. coli nitroreductase. The following applies: hamster, 2 h.
Procedure: as §3
The mark [21] stands for this setting: +CG (81 μg/ml) + SN23862 + 500 μM NADH.

As to `NC(=O)c1cc(N2CC2)c(NO)cc1[N+](=O)[O-]` [5-(aziridin-1-yl)-2-nitro-4-hydroxylamino-benzamide], the anti-tumour activity entry in data set [1] is given as “active anti-tumour agent”.
Turning to `NC(=O)c1cc(N2CC2)c([N+](=O)[O-])cc1[N+](=O)[O-]` [CB 1954, 5-(aziridin-1-yl)-2,4-dinitrobenzaride], the “activity against the Walker tumour cells” value in data set [2] is “considerable activity”. The “activity against other tumours” value in data set [3] is “virtually inactive”. In data set [4], the “reduction of the 4-nitro group to the corresponding hydroxylamine” value is on record as “ability to reduce the 4-nitro group of CB 1954”. In addition, the “conversion into an active anti-tumour agent by bacterial nitroreductases” value in data set [5] was “capable of converting CB 1954 into an active anti-tumour agents”.
As for `NC(=O)c1cc(N(CCCl)CCCl)c([N+](=O)[O-])cc1[N+](=O)[O-]` [Compound 1, 5-[N,N-bis(2-chloroethyl)amino]-2,4-diritrobenzamide], the negative-log IC50 (pIC50) (as a rule, the IC50 on a negative log10 scale, so that one unit is a factor of ten) in data set [6] was 3.33; in data set [7] it was 3.96. Further, the “HF (air) = IC50 (AA8)/IC50 (UV4)” value in data set [8] is 6.8. Moreover, the “CT10 ratio (air/N2)” value in [9] (UV4 cells, aerobic CT10/hypoxic CT10) stood at 58. Further, in [9] (air, concentration x time to reduce UV4 cell survival to 10% of control), the “CT10 (UV4)” value amounted to 2925 μM-h. Moreover, the hypoxia-selective cytotoxicity entry in data set [9] (conclusion in words) is recorded as “hypoxia-selective cytotoxin”. Moreover, the “HF (NR-2)” value in [10] worked out at 73.5. The “% DRUG REDUCTION” value is recorded as below 1.0% in data set [11] (+50 μM SN23862); below 1.0% in [11] (+NADH + SN23862); below 1.0% in [11] (+NR + 50 μM SN23862); 95% in data set [11] (+NR + SN23862 + 500 μM NADH); below 1.0% in data set [13] (+50 μM SN23862); below 1.0% in data set [13] (+BA + 50 μM SN23862). Also, the “% DRUG REDUCTION” value in data set [13] (+BA + SN23862 + 500 μM NADH) is above 95%; in [13] (+NADH + SN23862), below 1.0%; in data set [16] (+50 μM SN23862), below 1.0%; in [16] (+CG + 50 μM SN23862), below 1.0%; in data set [16] (+CG + SN23862 + 500 μM NADH), above 99%; in [16] (+NADH + SN23862) it was below 1.0%. Further, the “% SURVIVAL” value worked out at 110% in data set [12] (+50 μM SN23862); 110% in [12] (+BA (7.45 μg/ml) + 50 μM SN23862); 6.0% in data set [12] (+BA (7.45 μg/ml) + SN23862 + 500 μM NADH); 115% in data set [12] (+NADH + SN23862); 100% in data set [19] (+50 μM SN23862); 100% in [19] (+NADH + SN23862). Besides, the “% SURVIVAL” value came out at 99% in data set [19] (+NR (2 μg/ml) + 50 μM SN23862) and 0.007% in data set [19] (+NR (2 μg/ml) + SN23862 + 500 μM NADH). The “% SURVIVAL MAWI Cells” value is recorded as 90.9% in data set [14] (+50 μM SN23862), 94.6% in [14] (+CG (81 μg/ml) + 50 μM SN23862), 0.014% in [14] (setting [21]) and 93.1% in [14] (+NADH + SN23862). Moreover, the “% SURVIVAL V79 Cells” value in [15] (+50 μM SN23862) was determined as 94.3%; in [15] (+CG (81 μg/ml) + 50 μM SN23862), 73.5%; in [15] (setting [21]), 0.003%; in data set [15] (+NADH + SN23862) it was 80.4%. In addition, in data set [17] (at C1.6, hypoxic AA8 cells, FIG. 1), the “drug toxicity at this extent of sensitisation” value is reported as “absence of drug toxicity”. For the same compound, the “Radiosensitisation of hypoxic cells” value in [17] (hypoxic AA8 cells, FIG. 1) is “Radiosensitisation of hypoxic cells was observed”. Moreover, the “C1.6 (concentration for an enhancement ratio of 1.6)” value in [17] (hypoxic, 10% survival, cobalt 60, 2.2 Gy/min, 37° C, drug 30 min before irradiation) is “approximately 100 μM”. The “reductive activation by bacterial nitroreductase enzymes” value in data set [18] is listed as “reductively activated by bacterial nitroreductase enzymes”.
Take `NC(=O)C1=CN([C@@H]2O[C@H](COP(=O)(O)OP(=O)(O)OC[C@H]3O[C@@H](n4cnc5c(N)ncnc54)[C@H](O)[C@@H]3O)[C@@H](O)[C@H]2O)C=CC1` [NADH, reference compound]: the “% SURVIVAL” value is listed as 120% in data set [12] (+500 μM NADH alone) and 100% in [20]. The “% SURVIVAL MAWI Cells” value in [14] (+500 μM NADH alone) was determined as 104.6%. Further, the “% SURVIVAL V79 Cells” value in [15] (+500 μM NADH alone) was 94.6%.
